Measured values reported in patent US6605627B2, “Modulators of peroxisome proliferator activated receptor-gamma, and methods for the use thereof” (The Salk Insitute for Biological Studies, priority 1999, dated 2003).

Biological target: T1, GAL4-PPARγ fusion protein (Mus musculus, UniProt P37238)
T1 construct: expressed in transfected cells; host or cells: CV-1 cells
T1 sequence (P37238 163-475 isoform P37238-2): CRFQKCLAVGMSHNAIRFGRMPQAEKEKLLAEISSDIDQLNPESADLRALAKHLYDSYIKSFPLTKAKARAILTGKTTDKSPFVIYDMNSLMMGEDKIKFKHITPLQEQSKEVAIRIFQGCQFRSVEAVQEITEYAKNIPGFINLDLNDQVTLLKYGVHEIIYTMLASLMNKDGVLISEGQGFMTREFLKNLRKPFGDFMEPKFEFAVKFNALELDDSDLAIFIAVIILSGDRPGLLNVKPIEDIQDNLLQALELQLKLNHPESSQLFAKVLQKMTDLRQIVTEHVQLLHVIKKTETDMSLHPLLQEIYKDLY
Test: Screening assay for PPAR-γ antagonists (GAL4-PPARγ luciferase reporter in CV-1 cells)
Type: cell-based
Details: CV-1 cells co-transfected with CMX-GAL-PPARγ and pTK-MH100x4-LUC; test compound alone or with agonist 200 nM BRL 49653; FIG. 1
Protocol: Effector plasmid, reporter plasmid, and β-galactosidase control plasmid are co-transfected into CV-1 cells at a ratio of about 1:3:5, using a liposome-mediated method, employing N-{2-(2,3)-dioleoyloxy)propyl-N,N,N-trimethyl ammonium methyl sulfate} (i.e., DOTAP, Boehlinger Mannheim) according to the manufacturer's instructions in Dulbecco's modified Eagle's medium (DMEM) with 10% delipidated hormone-depleted fetal calf serum. After about 2-3 hours, the cells are washed with DMEM and agonist (200 nM BRL 49653) and/or an appropriate test compound (LY 171883; see FIG. 1) is added to the media. After 24-48 hours of incubation, the cells are rinsed with phosphate buffered saline (pH 7.2) and lysed. Aliquots are assayed for luciferase and β-galactosidase activity. Luciferase activity is normalized to optical density units of β-galactosidase per minute of incubation.
Thus, CV-1 cells are co-transfected with CMX-GAL-PPARγ and pTK-MH100x4-LUC at a ratio of about 100 ng of receptor-encoding DNA per 10^5 cells. The usual amounts of DNA per 10^5 cells are 100 ng of CMX-GAL-PPARγ, 300 ng of pTK-MH100x4-LUC, and 500 ng of CMX-βGAL. Typically, transfections are performed in triplicate. The plates are then incubated for 2-3 hours at 37° C.
The cells are washed with fresh medium. […]
The data are expressed as relative light units (RLUs) per O.D. unit of β-galactosidase per minute. […]

CCCc1c(OCCCCc2nnn[nH]2)ccc(C(C)=O)c1O [LY 171883]
relative reporter activity (functional activity at PPARγ): functional antagonist of PPARγ
